What was measured:
[1] = Antioxidant activity by the spectrophotometric method of the free radical DPPH•
Description: The aim of the study was to evaluate the antioxidant activity of compound 11 by the spectrophotometric method of the free radical DPPH• (2,2-diphenyl-1-picrylhydrazyl). Indeed, antioxidants react with DPPH^• (purple), a stable free radical which is reduced to DPPH-H (yellow), and in consequence, the absorbance is decreased from the DPPH^• radical to the DPPH-H form. The degree of discoloration indicates the scavenging potential of the antioxidant compounds in terms of hydrogen donating ability (Popovici et al. Revue de génie industriel 2009, 4, 25-39).
The tested compounds were: Trolox ((±)-6-hydroxy-2,5,7,8-tetramethylchromane-2-carboxylic acid, Sigma Aldrich), as reference, and compound 11.
A stock solution of DPPH• was prepared at 200 μmol/mL in methanol and diluted in methanol in order to have a final concentration of around 150 μmol/mL to obtain a DO close to 0.9 in a plate of 96 wells. The antioxidant stock solutions were prepared at 1 mg/mL in methanol and the tested solutions were prepared from these antioxidant stock solutions as described in Table 7 below.
50 μL of each solution of antioxidant was added to the wells. Then, 200 μL of DPPH^• was added to each well.
The blank was prepared with only 250 μl of methanol and the negative control was prepared with 200 μL DPPH• and 50 μL of methanol.
The analysis was started immediately after the addition of DPPH• lasting for 2 hours (readings every 20 seconds). The absorbance was read at 515 nm. Each experiment was performed three times and had shown that the absorbance decreases while the concentration of antioxidant increased.
The activity of DPPH• is a percentage calculated as the ratio of A/An×100%.
The EC50 is expressed as a molar ratio of antioxidant (compound 11)/DPPH• (Popovici et al. Revue de génie industriel 2009, 4, 25-39). The EC50 was determined from the graph representing the percentage of DPPH• in function of the above mentioned molar ratio (moles of compound 11/moles of DPPH•).
The antioxidant activity of compound 11 was compared to that of Trolox used as a reference (considered as 100%).

[2] = In vitro human skin absorption, Franz diffusion cell: quantification in the receptor fluid (flux); format: in vitro ADME; conditions: human, 2 mg/ml
Description: The aim of this study was to evaluate the absorption of compound 11 applied to excised human skin.
In vitro method using a Franz diffusion cell allows measuring the diffusion of chemicals into and across skin.
The tested compound is applied to the surface of a human skin explant separating the two chambers of a Franz diffusion cell. The compound remains on the skin for a specified time under specified conditions. The receptor fluid is sampled at time points throughout the experiment and analyzed for the tested compound. The skin may also be fractioned for separate analysis in epidermis or dermis layers.
The transcutaneous absorption was measured on human skin collected from the abdominoplasty of a single donor. At reception, the skin was defatted and cut in several fragments in order to perform Franz experiment. […]
The tested compounds were quantified, at T0 h and T24 h in the receptor solution bathing the inner surface of the skin (determination of flux), or at T24 h in the fractionated skin extracts (epidermis or dermis). […]
Sampling: 500 μL from the receptor fluid were removed at T0 h (replaced by Ringer solution) and at T24 h. These samples were analyzed by LC-MS/MS method for quantification of compound 11 and deoxyarbutin (results not shown). The quantity measured allowed to calculate a flux and to compare the absorption profile across the skin of compound 11 and deoxyarbutin.

human tyrosinase = assay: HumanLike Tyrosinase Assay kit (Feldan), L-Tyrosine to dopachrome, OD at 490 nm; format: biochemical; conditions: for OD at 490 nm: 1.12 mM
Method: The efficacy of compound 16 was evaluated by the inhibition of human tyrosinase in tubo and compared to the compound 11.
The assay was performed with a ready-to-use kit from Feldan Inc (Canada): the HumanLike Tyrosinase Assay kit (ref A021-a-001Kit).
The protocol was performed as described in the instructions for use of the manufacturer. Briefly, this kit is intended for the determination of human tyrosinase activity in presence of different inhibitors. The kit measures the conversion of L-Tyrosine into a dopachrome complex absorbing at 490 nm. The time course of the assay is 20 minutes, after which the results are analyzed and compared.
The compounds 11 and 16 have been tested at a final concentration of 1.12 mM.
The measured absorbances at 490 nm are reported in the table 5 and plotted in function of time in the FIG. 1.
Moreover for each compound the efficacy as tyrosinase inhibitor was calculated using the following formula: […]

For Oc1ccc(OC2CCCCC2(F)F)cc1 (racemic) [Compound 11], the “A at 515 nm (T = 30 min)” value ([1]; Solution 1 (0.05 mg/mL in methanol)) was 0.505, the “A at 515 nm (T = 30 min)” value ([1]; Solution 2 (0.10 mg/mL in methanol)) was 0.373 and the “A at 515 nm (T = 30 min)” value ([1]; Solution 3 (0.15 mg/mL in methanol)) was 0.234. For the same compound, the “A at 515 nm (T = 30 min)” value ([1]; Solution 4 (0.2 mg/mL in methanol)) was 0.233, the “antioxidant (free radical scavenger) efficacy compared to that of Trolox” value ([1]; Trolox considered as 100%) was 31.1% and the “EC50 (Ratio antioxidant/DPPH•) Mean” value ([1]; molar ratio antioxidant/DPPH•, absorbance at T = 30 min) was 0.772. For the same compound, the “Flux, mean (n = 3)” value [2] was 2.71 μg/h/cm^2, the “OD at 490 nm” value (human tyrosinase; time 0 min) was 0.0000 and the “OD at 490 nm” value (human tyrosinase; time 1 min) was 0.0095. For the same compound, the “OD at 490 nm” value (human tyrosinase; time 2 min) was 0.0190, the “OD at 490 nm” value (human tyrosinase; time 3 min) was 0.0295 and the “OD at 490 nm” value (human tyrosinase; time 4 min) was 0.0400. The “OD at 490 nm” value (human tyrosinase; time 5 min) was 0.0505, the “OD at 490 nm” value (human tyrosinase; time 6 min) was 0.0610 and the “OD at 490 nm” value (human tyrosinase; time 7 min) was 0.0715. The “OD at 490 nm” value (human tyrosinase; time 8 min) was 0.0825, the “OD at 490 nm” value (human tyrosinase; time 9 min) was 0.0925 and the “OD at 490 nm” value (human tyrosinase; time 10 min) was 0.1035. The “OD at 490 nm” value (human tyrosinase; time 11 min) was 0.1135, the “OD at 490 nm” value (human tyrosinase; time 12 min) was 0.1245 and the “OD at 490 nm” value (human tyrosinase; time 13 min) was 0.1355. For the same compound, the “OD at 490 nm” value (human tyrosinase; time 14 min) was 0.1465, the “OD at 490 nm” value (human tyrosinase; time 15 min) was 0.1575 and the “OD at 490 nm” value (human tyrosinase; time 16 min) was 0.1685. The “OD at 490 nm” value (human tyrosinase; time 17 min) was 0.1790, the “OD at 490 nm” value (human tyrosinase; time 18 min) was 0.1900 and the “OD at 490 nm” value (human tyrosinase; time 19 min) was 0.2010. For the same compound, the “OD at 490 nm” value (human tyrosinase; time 20 min) was 0.2120 and the “Inhibitor efficacy (%)” value (human tyrosinase; Compound at 1.12 mM, T = 20 min) was 13.5%.
